Where “and” joins values, the source holds several entries; their conditions need not be identical. Identical values can stand only once. Inconclusive results and toxic doses are left out. Cut-off read from the data, not from the text of the source: active = T/C of 150% or more; inactive = T/C below 125%.
System: L1210 leukemia ip in BDF1 mice, survival T/C
Experiment: NCI In Vivo Anticancer Drug Screen. Data for tumor model L1210 Leukemia (intraperitoneal) in B6D2F1 (BDF1) mice
Settings: endpoint: mean survival time, higher = longer survival
Procedure, shortened: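 Each compound was tested against a transplantable tumor grown in mice. The endpoint was survival, with treated animals benchmarked against vehicle controls as a simple ratio.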

[1] = dose: 100.0 mg/kg/injection, schedule: Q01DX001 (ip), vehicle: saline
[2] = dose: 200.0 mg/kg/injection, schedule: Q01DX001 (ip), vehicle: saline
[3] = dose: 400.0 mg/kg/injection, schedule: Q01DX001 (ip), vehicle: saline
[4] = dose: 100.0 mg/kg/injection, schedule: Q01DX009 (ip), vehicle: saline with Tween-80
[5] = dose: 100.0 mg/kg/injection, schedule: Q04DX003 (ip), vehicle: saline with Tween-80
[6] = dose: 200.0 mg/kg/injection, schedule: Q01DX009 (ip), vehicle: saline with Tween-80
[7] = dose: 200.0 mg/kg/injection, schedule: Q04DX003 (ip), vehicle: saline with Tween-80
[8] = dose: 400.0 mg/kg/injection, schedule: Q01DX009 (ip), vehicle: saline with Tween-80
[9] = dose: 400.0 mg/kg/injection, schedule: Q04DX003 (ip), vehicle: saline with Tween-80
[10] = dose: 100.0 mg/kg/injection, schedule: Q04DX002 (ip), vehicle: Klucel (hydroxypropylcellulose) (HPC)
[11] = dose: 200.0 mg/kg/injection, schedule: Q04DX002 (ip), vehicle: Klucel (hydroxypropylcellulose) (HPC)
[12] = dose: 400.0 mg/kg/injection, schedule: Q04DX002 (ip), vehicle: Klucel (hydroxypropylcellulose) (HPC)

Measured: T/C

Cc1cc(NC(=O)Nc2ccc(Cl)c(C(F)(F)F)c2)no1
inactive: dose: 50.0 mg/kg/injection, schedule: Q01DX009 (ip), vehicle: carboxymethylcellulose (CMC) 96 % of control and 97 % of control | dose: 100.0 mg/kg/injection, schedule: Q01DX001 (ip), vehicle: carboxymethylcellulose (CMC) 110 % of control and 112 % of control | dose: 100.0 mg/kg/injection, schedule: Q04DX002 (ip), vehicle: carboxymethylcellulose (CMC) 94 % of control and 100 % of control | dose: 100.0 mg/kg/injection, schedule: Q04DX003 (ip), vehicle: carboxymethylcellulose (CMC) 96 % of control and 103 % of control | dose: 200.0 mg/kg/injection, schedule: Q01DX001 (ip), vehicle: carboxymethylcellulose (CMC) 95 % of control and 108 % of control | dose: 200.0 mg/kg/injection, schedule: Q04DX002 (ip), vehicle: carboxymethylcellulose (CMC) 94 % of control and 97 % of control | dose: 200.0 mg/kg/injection, schedule: Q04DX003 (ip), vehicle: carboxymethylcellulose (CMC) 97 % of control and 101 % of control | dose: 400.0 mg/kg/injection, schedule: Q01DX001 (ip), vehicle: carboxymethylcellulose (CMC) 94 % of control and 91 % of control | dose: 400.0 mg/kg/injection, schedule: Q01DX009 (ip), vehicle: carboxymethylcellulose (CMC) 86 % of control | dose: 400.0 mg/kg/injection, schedule: Q04DX002 (ip), vehicle: carboxymethylcellulose (CMC) 89 % of control and 90 % of control | dose: 400.0 mg/kg/injection, schedule: Q04DX003 (ip), vehicle: carboxymethylcellulose (CMC) 92 % of control and 95 % of control

CC(=O)C(C)C(C)(C)C (configuration not stated)
inactive: [1] 106 % of control | [2] 92 % of control | [3] 97 % of control

Cc1ccnc(NC2=CC(=O)C(=O)c3ccccc32)c1
inactive: dose: 100.0 mg/kg/injection, schedule: Q01DX001 (ip), vehicle: other 93 % of control | dose: 200.0 mg/kg/injection, schedule: Q01DX001 (ip), vehicle: other 95 % of control | dose: 400.0 mg/kg/injection, schedule: Q01DX001 (ip), vehicle: other 103 % of control

c1ccc2c3c([nH]c2c1)CCCC3
inactive: dose: 100.0 mg/kg/injection, schedule: Q01DX009 (ip), vehicle: Klucel (hydroxypropylcellulose) (HPC) 97 % of control | dose: 100.0 mg/kg/injection, schedule: Q04DX003 (ip), vehicle: Klucel (hydroxypropylcellulose) (HPC) 107 % of control | dose: 200.0 mg/kg/injection, schedule: Q01DX009 (ip), vehicle: Klucel (hydroxypropylcellulose) (HPC) 113 % of control | dose: 200.0 mg/kg/injection, schedule: Q04DX003 (ip), vehicle: Klucel (hydroxypropylcellulose) (HPC) 105 % of control | dose: 400.0 mg/kg/injection, schedule: Q04DX003 (ip), vehicle: Klucel (hydroxypropylcellulose) (HPC) 102 % of control

NC(CCl)=NCC1CCCC1
inactive: dose: 12.5 mg/kg/injection, schedule: Q04DX002 (ip), vehicle: Klucel (hydroxypropylcellulose) (HPC) 96 % of control | dose: 25.0 mg/kg/injection, schedule: Q04DX002 (ip), vehicle: Klucel (hydroxypropylcellulose) (HPC) 96 % of control | dose: 50.0 mg/kg/injection, schedule: Q04DX002 (ip), vehicle: Klucel (hydroxypropylcellulose) (HPC) 96 % of control

COC(OC)c1[nH]c(=S)[nH]c(=O)c1CCCc1ccccc1
inactive: [4] 94 % of control | [5] 100 % of control | [6] 105 % of control | [7] 100 % of control | [8] 86 % of control | [9] 96 % of control

O=C(O)C(=O)Cc1cccc(Cl)c1[N+](=O)[O-]
inactive: dose: 75.0 mg/kg/injection, schedule: Q04DX003 (ip), vehicle: saline 96 % of control | dose: 150.0 mg/kg/injection, schedule: Q04DX003 (ip), vehicle: saline 102 % of control | dose: 300.0 mg/kg/injection, schedule: Q04DX003 (ip), vehicle: saline 98 % of control

CC(NC(=O)NCCCl)c1cccc([N+](=O)[O-])c1 (configuration not stated)
inactive: [10] 94 % of control | [11] 105 % of control | [12] 119 % of control

NC(=S)N/N=C\c1cccs1
inactive: [10] 96 % of control | [11] 107 % of control | [12] 102 % of control

NC(=O)C(N)=O
inactive: dose: 100.0 mg/kg/injection, schedule: Q01DX009 (ip), vehicle: saline 93 % of control | dose: 100.0 mg/kg/injection, schedule: Q04DX003 (ip), vehicle: saline 106 % of control | dose: 200.0 mg/kg/injection, schedule: Q01DX009 (ip), vehicle: saline 103 % of control | dose: 200.0 mg/kg/injection, schedule: Q04DX003 (ip), vehicle: saline 101 % of control | dose: 400.0 mg/kg/injection, schedule: Q01DX009 (ip), vehicle: saline 101 % of control | dose: 400.0 mg/kg/injection, schedule: Q04DX003 (ip), vehicle: saline 97 % of control

CCC(=O)Nc1ccc(OS(=O)(=O)N(C)C)cc1
inactive: dose: 100.0 mg/kg/injection, schedule: Q01DX001 (ip), vehicle: saline with Tween-80 100 % of control | dose: 200.0 mg/kg/injection, schedule: Q01DX001 (ip), vehicle: saline with Tween-80 95 % of control | dose: 400.0 mg/kg/injection, schedule: Q01DX001 (ip), vehicle: saline with Tween-80 100 % of control

CCOC(=O)C(C)(C)O
inactive: [1] 91 % of control | [2] 100 % of control | [3] 102 % of control

O=C1/C(=C/c2ccccc2)Cc2cccc(O)c21
inactive: dose: 100.0 mg/kg/injection, schedule: Q01DX009 (ip), vehicle: saline sonified 100 % of control | dose: 200.0 mg/kg/injection, schedule: Q01DX009 (ip), vehicle: saline sonified 107 % of control | dose: 400.0 mg/kg/injection, schedule: Q01DX009 (ip), vehicle: saline sonified 102 % of control

O=S(=O)(NO)c1ccccc1
inactive: [4] 98 % of control | [5] 98 % of control | [6] 96 % of control | [7] 100 % of control | [8] 98 % of control | [9] 98 % of control

CCOC(=O)C1(Cl)OC(Cl)(Cl)C(Cl)C1Cl (configuration not stated)
inactive: dose: 10.0 mg/kg/injection, schedule: Q01DX001 (ip), vehicle: saline 92 % of control | dose: 20.0 mg/kg/injection, schedule: Q01DX001 (ip), vehicle: saline 90 % of control | dose: 40.0 mg/kg/injection, schedule: Q01DX001 (ip), vehicle: saline 103 % of control | dose: 80.0 mg/kg/injection, schedule: Q01DX001 (ip), vehicle: saline 90 % of control

CCCCCCCCOP(=O)(OCCCCCCCC)c1ccccc1
inactive: dose: 10.0 mg/kg/injection, schedule: Q01DX001 (ip), vehicle: acetone 91 % of control | dose: 10.0 mg/kg/injection, schedule: Q04DX003 (ip), vehicle: acetone 97 % of control | dose: 12.5 mg/kg/injection, schedule: Q01DX009 (ip), vehicle: saline 94 % of control | dose: 20.0 mg/kg/injection, schedule: Q01DX001 (ip), vehicle: acetone 91 % of control | dose: 20.0 mg/kg/injection, schedule: Q04DX003 (ip), vehicle: acetone 92 % of control | dose: 25.0 mg/kg/injection, schedule: Q01DX009 (ip), vehicle: saline 94 % of control | dose: 40.0 mg/kg/injection, schedule: Q01DX001 (ip), vehicle: acetone 86 % of control | dose: 40.0 mg/kg/injection, schedule: Q04DX003 (ip), vehicle: acetone 97 % of control | dose: 50.0 mg/kg/injection, schedule: Q01DX009 (ip), vehicle: saline 94 % of control | dose: 75.0 mg/kg/injection, schedule: Q01DX009 (ip), vehicle: saline 112 % of control | dose: 115.0 mg/kg/injection, schedule: Q01DX009 (ip), vehicle: saline 106 % of control | dose: 170.0 mg/kg/injection, schedule: Q01DX009 (ip), vehicle: saline 98 % of control

From PubChem BioAssay AID248 (DTP/NCI, 2004)
